Columns and labels:
[1] = test system: patients with advanced refractory solid tumours or non-Hodgkin's lymphoma; assay: Phase I dose escalation: safety, tolerability, DLT and adverse events; format: in vivo, human
CDK6 = conditions: ref Squires et al, 2009; cited from earlier work
[2] = 1-h intravenous infusion on days 1, 4, 8 and 11 every 3 weeks

## O=C(NC1CCNCC1)c1n[nH]cc1NC(=O)c1c(Cl)cccc1Cl [AT7519, N-(4-piperidinyl)-4-(2,6-dichlorobenzoylamino)-1H-pyrazole-3-carboxamide]
[1]; 27.0 mg m^−2 (n=15)
  Thrombocytopenia: No. of patients with AEs of any grade: 6 No. of patients
  Vomiting: No. of patients with AEs of any grade: 4 No. of patients
[1]; 32.4 mg m^−2 (n=5)
  ALP elevation: No. of patients with AEs of any grade: 5 No. of patients
  AST elevation: No. of patients with AEs of any grade: 3 No. of patients
  Anaemia: No. of patients with AEs of any grade: 5 No. of patients
  Anorexia: No. of patients with AEs of any grade: 1 No. of patients
  Creatinine elevation: No. of patients with AEs of any grade: 2 No. of patients
  Diarrhoea: No. of patients with AEs of any grade: 0 No. of patients
  Fatigue: No. of patients with AEs of any grade: 3 No. of patients
  Hyperglycaemia (random): No. of patients with AEs of any grade: 2 No. of patients
  Infection without neutropenia: No. of patients with AEs of any grade: 2 No. of patients
  Lymphopenia: No. of patients with AEs of any grade: 5 No. of patients
  Mucositis: No. of patients with AEs of any grade: 3 No. of patients
  Nausea: No. of patients with AEs of any grade: 4 No. of patients
  Neutropenia: No. of patients with AEs of any grade: 1 No. of patients
  Thrombocytopenia: No. of patients with AEs of any grade: 2 No. of patients
  Vomiting: No. of patients with AEs of any grade: 5 No. of patients
[1]; [2]
  maximum tolerated dose: 32.4 mg m^−2
  recommended phase II dose (RP2D): 27.0 mg m^−2
[1]; all dose levels (N=32)
  ALP elevation: Any grade AE No. of patients (%): 20 (62.5) No. of patients (%)
  ALP elevation: Grade 3/4 AE No. of patients (%): 5 (15.6) No. of patients (%)
  AST elevation: Any grade AE No. of patients (%): 16 (50.0) No. of patients (%)
  AST elevation: Grade 3/4 AE No. of patients (%): 3 (9.4) No. of patients (%)
  Anaemia: Any grade AE No. of patients (%): 28 (87.5) No. of patients (%)
  Anaemia: Grade 3/4 AE No. of patients (%): 1 (3.1) No. of patients (%)
  Anorexia: Any grade AE No. of patients (%): 4 (12.5) No. of patients (%)
  Anorexia: Grade 3/4 AE No. of patients (%): 0 No. of patients (%)
  Creatinine elevation: Any grade AE No. of patients (%): 5 (15.6) No. of patients (%)
  Creatinine elevation: Grade 3/4 AE No. of patients (%): 1 (3.1) No. of patients (%)
  Diarrhoea: Any grade AE No. of patients (%): 5 (15.6) No. of patients (%)
  Diarrhoea: Grade 3/4 AE No. of patients (%): 0 No. of patients (%)
  Fatigue: Any grade AE No. of patients (%): 17 (53.1) No. of patients (%)
  Fatigue: Grade 3/4 AE No. of patients (%): 3 (9.4) No. of patients (%)
  Hyperglycaemia (random): Any grade AE No. of patients (%): 12 (37.5) No. of patients (%)
  Hyperglycaemia (random): Grade 3/4 AE No. of patients (%): 2 (6.3) No. of patients (%)
  Infection without neutropenia: Any grade AE No. of patients (%): 6 (18.8) No. of patients (%)
  Infection without neutropenia: Grade 3/4 AE No. of patients (%): 1 (3.1) No. of patients (%)
  Lymphopenia: Any grade AE No. of patients (%): 27 (84.4) No. of patients (%)
  Lymphopenia: Grade 3/4 AE No. of patients (%): 12 (37.5) No. of patients (%)
  Mucositis: Any grade AE No. of patients (%): 17 (53.1) No. of patients (%)
  Mucositis: Grade 3/4 AE No. of patients (%): 3 (9.4) No. of patients (%)
  Nausea: Grade 3/4 AE No. of patients (%): 0 No. of patients (%)
  Neutropenia: Any grade AE No. of patients (%): 5 (15.6) No. of patients (%)
  Neutropenia: Grade 3/4 AE No. of patients (%): 1 (3.1) No. of patients (%)
  Thrombocytopenia: Any grade AE No. of patients (%): 9 (28.1) No. of patients (%)
  Thrombocytopenia: Grade 3/4 AE No. of patients (%): 0 No. of patients (%)
  Vomiting: Any grade AE No. of patients (%): 11 (34.4) No. of patients (%)
  Vomiting: Grade 3/4 AE No. of patients (%): 0 No. of patients (%)
[1]; any grade, all dose levels
  patients with anaemia: 87.5%
  patients with fatigue: 53.1%
  patients with lymphopenia: 84.4%
  patients with mucositis: 53.1%
  patients with nausea: 31.7%
  patients with vomiting: 34.4%
[1]; dose level 14.4 mg m^−2, 5 patients treated, days 1, 4, 8, 11 every 3 weeks
  No. of patients with DLT: No DLTs and none
[1]; grade 3, all dose levels
  patients experienced grade 3 fatigue and mucositis: < 10%
[1]; grade 3 or 4, all dose levels
  grade 3 or 4 elevation of alkaline phosphatase: 15.6%
  grade 3 or 4 elevation of aspartate transaminase: 9.4%
  patients developing grade 3 or 4 lymphopenia: 37.5%
  patients with grade 3 or 4 fatigue and mucositis: 9%
CDK6
  IC50: 170 nM

Reference: publication PMC4264455 (British Journal of Cancer, 2014)
